Laboratory results reported in patent US10407409B2, “6-(5-hydroxy-1H-pyrazol-1-yl)nicotinamide inhibitors of PHD” (Takeda Pharmaceutical Company Limited, priority 2013, dated 2019).

Experiments:
[1] = target: PHD2 enzyme (residues 181-417) (Homo sapiens (Human), UniProt Q9GZT9); assay: Inhibition of PHD enzyme (LC/MS peptide hydroxylation assay); assay type: biochemical; conditions: PHD2 (residues 181-417) 5 nM, 60 min pre-incubation; -log(IC50), IC50 molar
In short: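 PHD2 (5 nM final) preincubated with inhibitor 60 min at RT in 50 mM HEPES, 50 mM KCl, 0.5 mM TCEP, 2 uM FeCl2, 0.1 mg/ml BSA, pH 7.3. Reaction started with biotin-peptide (1 uM), 2-oxoglutarate (2 uM), ascorbate (1 mM), quenched at 60 min; hydroxylated product by LC/MS, reported as pIC50.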

[2] = tested on: HIF1a protein in H9c2 rat cardiomyocytes; assay: Cell-based HIF-alpha stabilization assay (inhibition of PHD in cells); conditions: 24 hrs compound incubation, HIF1a protein by ELISA; for EC50: Rattus norvegicus, H9c2, 24 h, read-out: Inhibition of PHD in cells (pEC50) (converted)
In short: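 Rat H9c2 cardiomyocytes, cultured 24 h, were treated 24 h with an 11-point serial dilution of compound. HIF1a in whole-cell lysates was quantified by ELISA as % of the maximal desferrioxamine response. EC50 came from curve fitting; EC50pos is the concentration reaching 50% of the desferrioxamine maximum.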

Sequence of PHD2 enzyme (residues 181-417) (Q9GZT9 181-417): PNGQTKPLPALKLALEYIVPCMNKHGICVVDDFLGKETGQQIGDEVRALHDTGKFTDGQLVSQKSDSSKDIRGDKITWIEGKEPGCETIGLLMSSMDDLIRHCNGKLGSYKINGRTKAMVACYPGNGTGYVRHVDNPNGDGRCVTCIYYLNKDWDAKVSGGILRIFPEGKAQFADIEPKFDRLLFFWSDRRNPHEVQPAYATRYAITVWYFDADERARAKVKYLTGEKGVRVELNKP

Row | Structure (SMILES) | PHD Inhibition (pIC50) [1] | EC50 [2] [nM] | Inhibition of PHD in cells (pEC50) [2]
1 | Cc1c(-c2cnn(-c3ccc(C(=O)N4CCN(C)CC4)cn3)c2O)ccc(C#N)c1F [Example 322, 2-fluoro-4-(5-hydroxy-1-(5-(4-methylpiperazine-1-carbonyl)pyridin-2-yl)-1H-pyrazol-4-yl)-3-methylbenzonitrile] | 8.26 | 933 | 
2 | Cc1cc(C#N)ccc1-c1cnn(-c2ccc(C(=O)N[C@H]3CC[C@@H](O)CC3)cn2)c1O [Example 131, 6-(4-(4-cyano-2-methylphenyl)-5-hydroxy-1H-pyrazol-1-yl)-N-((1 s,4s)-4-hydroxycyclohexyl)nicotinamide] | 7.21 | 257 | 
3 | Cc1cc(-n2ncc(-c3ccc(C#N)cc3)c2O)ncc1C(=O)N[C@H]1CC[C@@H](O)CC1 [Example 278, 6-(4-(4-cyanophenyl)-5-hydroxy-1H-pyrazol-1-yl)-N-((1s,4s)-4-hydroxycyclohexyl)-4-methylnicotinamide] | 7.05 | 3240 | 
4 | Cc1cc(C#N)ccc1-c1cnn(-c2ccc(C(=O)N3CCN(C4CC4)[C@H](C)C3)cn2)c1O [Example 375, (R)-4-(1-(5-(4-cyclopropyl-3-methylpiperazine-1-carbonyl)pyridin-2-yl)-5-hydroxy-1H-pyrazol-4-yl)-3-methylbenzonitrile] | 8.06 | 1000 | 
5 | N#Cc1ccc(-c2cnn(-c3ccc(C(=O)N4CCC[C@@H]4CN4CCCC4)cn3)c2O)cc1 [Example 364, (R)-4-(5-hydroxy-1-(5-(2-(pyrrolidin-1-ylmethyl)pyrrolidine-1-carbonyl)pyridin-2-yl)-1H-pyrazol-4-yl)benzonitrile] | 6.73 | 7760 | 
6 | Cc1cc(C#N)ccc1-c1cnn(-c2ccc(C(=O)NCCCO)cn2)c1O [Example 125, 6-(4-(4-cyano-2-methylphenyl)-5-hydroxy-1H-pyrazol-1-yl)-N-(3-hydroxypropyl)nicotinamide] | 7.19 | 372 | 
7 | CN1CCC2(CCN(C(=O)c3ccc(-n4ncc(-c5ccc(C#N)cc5)c4O)nc3)C2)C1 (stereo not drawn) [Example 350, 4-(5-hydroxy-1-(5-(7-methyl-2,7-diazaspiro[4.4]nonane-2-carbonyl)pyridin-2-yl)-1H-pyrazol-4-yl)benzonitrile] | 7.26 | 3310 | 
8 | Cc1cc(C#N)ccc1-c1cnn(-c2ccc(C(=O)N[C@H](C)C3CC3)cn2)c1O [Example 138A, (R)-6-(4-(4-cyano-2-methylphenyl)-5-hydroxy-1H-pyrazol-1-yl)-N-(1-cyclopropylethyl)nicotinamide] | 6.95 | 302 | 
9 | Cc1cc(C#N)ccc1-c1cnn(-c2ccc(C(=O)NCC3CN(C)CCO3)cn2)c1O (stereo not drawn) [Example 101, 6-(4-(4-cyano-2-methylphenyl)-5-hydroxy-1H-pyrazol-1-yl)-N-((4-methylmorpholin-2-yl)methyl)nicotinamide] | 8.1 | 158 | 
10 | COC(C)CCNC(=O)c1ccc(-n2ncc(-c3ccc(C#N)cc3C)c2O)nc1 (stereo not drawn) [Example 181, 6-(4-(4-cyano-2-methylphenyl)-5-hydroxy-1H-pyrazol-1-yl)-N-(3-methoxybutyl)nicotinamide] | 8.2 | 324 | 
11 | Cc1cc(C#N)ccc1-c1cnn(-c2ccc(C(=O)NCCC3CCOC3)cn2)c1O (stereo not drawn) [Example 66, 6-(4-(4-cyano-2-methylphenyl)-5-hydroxy-1H-pyrazol-1-yl)-N-(2-(tetrahydrofuran-3-yl)ethyl)nicotinamide] | 7.22 | 120 | 
12 | COc1cc(-c2cnn(-c3ccc(C(=O)NC4(C)CC4)cn3)c2O)ccn1 [Example 4, 6-(5-hydroxy-4-(2-methoxypyridin-4-yl)-1H-pyrazol-1-yl)-N-(1-methylcyclopropyl)nicotinamide] | 6.92 | 525 | 

The next lines start with results.

Row | PHD Inhibition (pIC50) [1] | Structure (SMILES) | EC50 [2] [nM] | Inhibition of PHD in cells (pEC50) [2]
13 | 7.11 | N#Cc1ccc(-c2cnn(-c3ccc(C(=O)NCC4CCOCC4)cn3)c2O)c(F)c1 [Example 221, 6-(4-(4-cyano-2-fluorophenyl)-5-hydroxy-1H-pyrazol-1-yl)-N-((tetrahydro-2H-pyran-4-yl)methyl)nicotinamide] | 933 | 
14 | 7.5 | COc1cc(-c2cnn(-c3ccc(C(=O)NCCCN4CCCCC4)cn3)c2O)ccn1 [Example 38, 6-(5-hydroxy-4-(2-methoxypyridin-4-yl)-1H-pyrazol-1-yl)-N-(3-(piperidin-1-yl)propyl)nicotinamide] |  | 6.02
15 | 7.03 | COc1cc(-c2cnn(-c3ccc(C(=O)NCCOC(C)C)cn3)c2O)ccn1 [Example 7, 6-(5-hydroxy-4-(2-methoxypyridin-4-yl)-1H-pyrazol-1-yl)-N-(2-isopropoxyethyl)nicotinamide] | 1000 | 
16 | 8.24 | COCCCNC(=O)c1ccc(-n2ncc(-c3ccc(C#N)c(C)c3C)c2O)nc1 [Example 409, 6-(4-(4-cyano-2,3-dimethylphenyl)-5-hydroxy-1H-pyrazol-1-yl)-N-(3-methoxypropyl)nicotinamide] | 257 | 
17 | 8.17 | Cc1cc(C#N)ccc1-c1cnn(-c2ccc(C(=O)N3CCN(CC4CC4)CC3)cn2)c1O [Example 418, 4-(1-(5-(4-(cyclopropylmethyl)piperazine-1-carbonyl)pyridin-2-yl)-5-hydroxy-1H-pyrazol-4-yl)-3-methylbenzonitrile] | 1170 | 
18 | 7.27 | COCC1(CNC(=O)c2ccc(-n3ncc(-c4ccnc(OC)c4)c3O)nc2)CC1 [Example 14, 6-(5-hydroxy-4-(2-methoxypyridin-4-yl)-1H-pyrazol-1-yl)-N-((1-(methoxymethyl)cyclopropyl)methyl)nicotinamide] | 871 | 
19 | 8.18 | Cc1cc(C#N)ccc1-c1cnn(-c2ccc(C(=O)N3CC(N(C)C4CC4)C3)cn2)c1O [Example 298, 4-(1-(5-(3-(cyclopropyl(methyl)amino)azetidine-1-carbonyl)pyridin-2-yl)-5-hydroxy-1H-pyrazol-4-yl)-3-methylbenzonitrile] | 977 | 
20 | 8.13 | Cc1c(C#N)ccc(-c2cnn(-c3ccc(C(=O)N4CCN(C5CC5)CC4)cn3)c2O)c1C [Example 310, 4-(1-(5-(4-cyclopropylpiperazine-1-carbonyl)pyridin-2-yl)-5-hydroxy-1H-pyrazol-4-yl)-2,3-dimethylbenzonitrile] | 3160 | 
21 | 7.07 | N#Cc1ccc(-c2cnn(-c3ccc(C(=O)NCCF)cn3)c2O)cc1 [Example 78, 6-(4-(4-cyanophenyl)-5-hydroxy-1H-pyrazol-1-yl)-N-(2-fluoroethyl)nicotinamide] | 1550 | 
22 | 8.2 | Cc1cc(C#N)ccc1-c1cnn(-c2ccc(C(=O)NCC3CCC(F)(F)CC3)cn2)c1O [Example 247, 6-(4-(4-cyano-2-methylphenyl)-5-hydroxy-1H-pyrazol-1-yl)-N-((4,4-difluorocyclohexyl)methyl)nicotinamide] | 813 | 
23 | 7.11 | COCCC(C)(C)NC(=O)c1ccc(-n2ncc(-c3ccc(C#N)cc3C)c2O)nc1 [Example 67, 6-(4-(4-cyano-2-methylphenyl)-5-hydroxy-1H-pyrazol-1-yl)-N-(4-methoxy-2-methylbutan-2-yl)nicotinamide] | 219 | 
24 | 7.53 | COCCC(C)NC(=O)c1ccc(-n2ncc(-c3ccc(C#N)cc3)c2O)nc1 (stereo not drawn) [Example 176, 6-(4-(4-cyanophenyl)-5-hydroxy-1H-pyrazol-1-yl)-N-(4-methoxybutan-2-yl)nicotinamide] | 398 | 
25 | 7.34 | CN1CCC(NC(=O)c2ccc(-n3ncc(-c4ccc(C#N)cc4)c3O)nc2)CC1 [Example 270, 6-(4-(4-cyanophenyl)-5-hydroxy-1H-pyrazol-1-yl)-N-(1-methylpiperidin-4-yl)nicotinamide] | 1000 | 
26 | 8.1 | Cc1cc(C#N)ccc1-c1cnn(-c2ccc(C(=O)NC3CCN(C4CC4)CC3)cn2)c1O [Example 140, 6-(4-(4-cyano-2-methylphenyl)-5-hydroxy-1H-pyrazol-1-yl)-N-(1-cyclopropylpiperidin-4-yl)nicotinamide] | 120 | 
27 | 8.63 | Cc1cc(C#N)c(F)cc1-c1cnn(-c2ccc(C(=O)N3CCN(C)C4(CC4)C3)cn2)c1O [Example 399, 2-fluoro-4-(5-hydroxy-1-(5-(4-methyl-4,7-diazaspiro[2.5]octane-7-carbonyl)pyridin-2-yl)-1H-pyrazol-4-yl)-5-methylbenzonitrile] | 1700 | 
